PubChem BioAssay (NCI)
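Five compound concentrations were applied to cells in 96-well plates for 48 hours; endpoints were derived by simple linear interpolation of the resulting dose-response curve. TGI is the concentration that stops growth completely.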

Experiments:
Test in all cases: NCI-60 cell line screen, 48 h
786-0 renal = test system: 786-0 renal
SF-539 CNS = test system: SF-539 CNS
SN12C renal = test system: SN12C renal
NCI-H23 lung = test system: NCI-H23 lung
M14 melanoma = test system: M14 melanoma
UACC-62 melanoma = test system: UACC-62 melanoma
SK-OV-3 ovarian = test system: SK-OV-3 ovarian
SR leukemia = test system: SR leukemia
NCI-H460 lung = test system: NCI-H460 lung
U251 CNS = test system: U251 CNS

Row | SMILES | TGI (786-0 renal) | TGI (SF-539 CNS) | TGI (SN12C renal) | TGI (NCI-H23 lung) | TGI (M14 melanoma) | TGI (UACC-62 melanoma) | TGI (SK-OV-3 ovarian) | TGI (SR leukemia) | TGI (NCI-H460 lung) | TGI (U251 CNS)
1 | CCN(CC)c1ccc(/C=C/C=C2C(=O)NC(=S)NC2=O)cc1 | > 100 µM | 36.6 µM | > 100 µM | > 100 µM | > 100 µM | > 100 µM | > 100 µM | > 100 µM | > 100 µM | > 80.8 µM
2 | CCN(CC)c1ccc2cc(C(=O)Nc3ccccn3)c(=N)oc2c1 | > 100 µM | > 100 µM | > 100 µM | > 100 µM | > 100 µM | > 100 µM | > 100 µM | > 100 µM | > 100 µM | > 100 µM
3 | COc1cc(N(Cc2ccc3oc(=O)c(-c4ccccc4)nc3c2)Cc2ccc3oc(=O)c(-c4ccccc4)nc3c2)cc(OC)c1OC | > 10 µM | > 10 µM | > 10 µM | > 10 µM | > 10 µM | > 10 µM | > 10 µM | > 10 µM | > 10 µM | > 10 µM
4 | C[Si](C)(C)C1=C([Si](C)(C)C)C(Cl)(Cl)C1=O | 10 µM | 12.7 µM | 15.8 µM | 18.4 µM | 9.24 µM | 7.69 µM | 49.3 µM | 5.46 µM | 32.2 µM | 11.3 µM
5 | Cc1ccc2c(c1)C(=O)C(C1OC(=O)c3ccccc31)C2 (stereo not given) | > 100 µM | > 100 µM | > 100 µM | > 100 µM | > 100 µM | > 100 µM | > 100 µM | > 100 µM | > 100 µM | > 100 µM
6 | C[C@H]1S[C@H](c2c(Cl)cccc2Cl)N2Cc3ccccc3N=C12 | 23 µM | 38.1 µM | > 100 µM | 28.8 µM | 32.4 µM | 26.1 µM | 38.3 µM | > 100 µM | 32.4 µM | > 100 µM
7 | Nc1c(Cl)ncnc1NCCCNc1ncnc(Cl)c1N | > 100 µM | > 100 µM | > 100 µM | > 100 µM | > 100 µM | > 100 µM | > 100 µM | > 100 µM | > 100 µM | > 100 µM
8 | O=[N+]([O-])c1ccc(O)c(/C=N/NC(=S)N2CCCCC2)c1 | 13.8 µM | > 100 µM | > 41.9 µM | 32.9 µM | > 100 µM | > 30.5 µM | > 56.6 µM | > 70.2 µM | 38.3 µM | 90.3 µM
9 | O=C1Nc2ccccc2/C1=c1\[nH]c(=O)/c(=C\c2ccc(OCc3ccccc3)cn2)[nH]c1=O | > 100 µM | 55.5 µM | > 100 µM | > 100 µM | > 100 µM | > 100 µM | > 100 µM | 69.4 µM | > 100 µM | 44.8 µM
10 | CSc1c(C(=O)Nc2ccc(Cl)cc2)c(N)n(N)c(=O)c1C#N | > 100 µM | > 100 µM | > 100 µM | > 100 µM | > 100 µM | > 100 µM | > 100 µM | > 100 µM | > 100 µM | > 100 µM
11 | COC(=O)c1ccc(Nc2nc3nc[nH]c3c(=O)[nH]2)cc1 | > 100 µM | > 100 µM | > 100 µM | > 100 µM | > 100 µM | > 100 µM | > 100 µM | > 100 µM | > 100 µM | > 100 µM
12 | CSC1NC(c2ccc(Cl)cc2)=C(C#N)C(=O)N1C1OCC(OC(C)=O)C(OC(C)=O)C1OC(C)=O (stereo not given) | > 100 µM | > 100 µM | > 100 µM | > 100 µM | > 100 µM | > 100 µM | > 100 µM | > 100 µM | > 100 µM | > 100 µM
13 | O=C1c2cn[nH]c2C(c2ccccc2)N1c1ccccc1 (stereo not given) | > 10 µM | > 10 µM | > 10 µM | > 10 µM | > 10 µM | > 10 µM | > 10 µM | > 10 µM | > 10 µM | > 10 µM
14 | C/C1=C\C=C(\C(C)C)CC/C(C(=O)O)=C\CC/C(C)=C/CC1 | 65.9 µM | 34.8 µM | 45.9 µM | 42.7 µM | 63.6 µM | 25.8 µM | 64 µM | 38.6 µM | 34.5 µM | 30.5 µM
15 | O=C(NC(=S)NC(=O)c1cc(O)c(O)c(O)c1)c1cc(O)c(O)c(O)c1 | 40.2 µM | > 100 µM | 53.7 µM | 55.4 µM | 98.6 µM | 49.4 µM | > 100 µM | > 100 µM | > 100 µM | 84.9 µM
16 | COc1ccccc1C[C@@H]1OC2(C=CC(=O)C=C2)O[C@H]1Cc1ccccc1OC | 4.29 µM | 15.6 µM | 23.4 µM | 18.9 µM | 17.5 µM | 23.2 µM | 24.5 µM | 13.1 µM | > 50 µM | 19.4 µM
17 | N#C[C@H](c1nc2ccccc2s1)c1nc2ccccc2nc1Cl | > 100 µM | > 100 µM | > 100 µM | 32.3 µM | 34.1 µM | 31.4 µM | 73 µM | > 100 µM | 47.3 µM | > 100 µM
18 | CCOC(=O)Oc1ccc2c(c1)c(=O)c1c(NCCN(CC)CC)ccc3nnn2c31 | 13 µM | 13.5 µM | 15.1 µM | 18.1 µM | 19.1 µM | 24.3 µM | 22.6 µM | 12.9 µM | 9.44 µM | 17 µM
19 | CCc1nc2ccc(NCCN(C)C)c3c(=O)c4ccccc4n1c23 | 7.66 µM | 15 µM | 10.6 µM | 3.23 µM | 4.68 µM | 8.06 µM | 13.3 µM | 7.66 µM | 3.07 µM | 12.1 µM
20 | COc1cc(C2c3cc4c(cc3OC(N3CCNCC3)C2C)OCO4)cc(OC)c1OC (stereo not given) | 15.7 µM | 1.94 µM | > 53.2 µM | > 100 µM | 20 µM | 14.9 µM | > 23.4 µM | 3.88 µM | 10.9 µM | > 43.8 µM
21 | CC1(C)CC(=O)C2=C(C1)OC1=C(CC(C)(C)CC1=O)C2c1ccccc1[N+](=O)[O-] (stereo not given) | > 100 µM | > 100 µM | > 100 µM | > 100 µM | > 100 µM | > 100 µM | > 100 µM | > 100 µM | > 100 µM | > 100 µM
22 | COc1ccc(-n2sc3ncccc3c2=O)cc1 | 32.3 µM | 37.7 µM | 91.3 µM | 36.8 µM | 41.3 µM | > 100 µM | > 100 µM | 55.1 µM | > 100 µM | 44.6 µM
23 | CCCC(CCN)(CCN)[N+](=O)[O-] | > 100 µM | > 100 µM | > 100 µM | > 100 µM | > 100 µM | > 100 µM | > 100 µM | > 100 µM | > 100 µM | > 100 µM
